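Method: 48-hour compound exposure of cells in 96-well plates, five concentrations, linear interpolation of endpoints. Abbreviation: GI50, concentration required for 50% inhibition of growth.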 Activity calls are given as the source filed them. No stated cut-off is given here; in the data, active = GI50 up to about 1.1 µM and inactive = higher.
Legend:
Test in all cases: NCI-60 cell line screen, 48 h
[1] = test system: MCF7
[2] = test system: NCI-H226
[3] = test system: DMS-114
[4] = test system: KM-20L2
[5] = test system: CAKI-1
[6] = test system: M14
[7] = test system: HT-29
[8] = test system: IGROV-1
[9] = test system: ACHN
[10] = test system: DMS-273
[11] = test system: OVCAR-5
[12] = test system: OVCAR-4
[13] = test system: SK-MEL-5
[14] = test system: SK-MEL-2
[15] = test system: KM12
[16] = test system: SF-539
[17] = test system: LXFL 529
[18] = test system: SK-OV-3
[19] = test system: OVCAR-8
[20] = test system: HOP-92
[21] = test system: A549
[22] = test system: SNB-78
[23] = test system: HOP-18
[24] = test system: MDA-MB-435
[25] = test system: HCT-116
[26] = test system: XF498
[27] = test system: SW-620
[28] = test system: HCC 2998
[29] = test system: SF-268
[30] = test system: PC-3
[31] = test system: COLO 205
[32] = test system: CCRF-CEM
[33] = test system: NCI-H460
[34] = test system: Hs-578T
[35] = test system: 786-0
[36] = test system: SF-295
[37] = test system: DLD-1
[38] = test system: SN12C
[39] = test system: SNB-19
[40] = test system: SNB-75
[41] = test system: HOP-62
[42] = test system: BT-549
[43] = test system: A498
[44] = test system: K562
[45] = test system: M19-MEL
[46] = test system: RPMI-8226
[47] = test system: MDA-MB-231
[48] = test system: UACC-62
[49] = test system: MOLT-4
[50] = test system: U-251
[51] = test system: RXF 393
[52] = test system: Malme-3M
[53] = test system: NCI-H522
[54] = test system: TK-10
[55] = test system: UO-31
[56] = test system: SR
[57] = test system: EKVX
[58] = test system: HCT-15
[59] = test system: LOX IMVI
[60] = test system: UACC-257
[61] = test system: DU-145
[62] = test system: NCI/ADR-RES
[63] = test system: RXF 631
[64] = test system: NCI-H23
[65] = test system: HL-60
[66] = test system: SK-MEL-28
[67] = test system: T47D
[68] = test system: OVCAR-3
[69] = test system: MDA-N

Measured: GI50

CNC(=O)OCc1nc(SSC(C)(C)C)n(C)c1COC(=O)NC
active: [32] 0.697 µM | [56] 1.05 µM | [65] 0.863 µM
inactive: [1] 4.3 µM | [2] 13.3 µM | [3] 1.72 µM | [4] 12.8 µM | [5] 1.82 µM | [6] 1.71 µM | [7] 5.56 µM | [8] 8.13 µM | [9] 2.7 µM | [10] 5.97 µM | [11] 10.4 µM | [12] 2.01 µM | [13] 5.98 µM | [14] 8.02 µM | [15] 17.3 µM | [16] 3.94 µM | [17] 1.24 µM | [18] 17.1 µM | [19] 2.07 µM | [20] 1.78 µM | [21] 14.2 µM | [22] 7.83 µM | [23] 5.18 µM | [24] 4.83 µM | [25] 1.72 µM | [26] 2.32 µM | [27] 1.61 µM | [28] 8.91 µM | [29] 6.75 µM | [30] 8.75 µM | [31] 1.59 µM | [33] 10.7 µM | [34] 2.22 µM | [35] 3.06 µM | [36] 17.1 µM | [37] 1.43 µM | [38] 4.42 µM | [39] 18 µM | [40] 8.57 µM | [41] 12.8 µM | [42] 1.47 µM | [43] 9.38 µM | [44] 1.94 µM | [45] 3.32 µM | [46] 2.54 µM | [47] 2.24 µM | [48] 1.95 µM | [49] 1.28 µM | [50] 12.9 µM | [51] 1.45 µM | [52] 1.86 µM | [53] 1.16 µM | [54] 6.11 µM | [55] 9.02 µM | [57] 8.28 µM | [59] 3.58 µM | [60] 2.94 µM | [61] 19.1 µM | [62] 5.52 µM | [63] 1.73 µM | [64] 2.71 µM | [66] 1.84 µM | [67] 2.81 µM | [68] 2.1 µM | [69] 2.45 µM
1.84 µM: [58]

CC1CCC(O)C(C(O)CC2CC(=O)N(C)C(=O)C2)C1 (stereo not given)
inactive: [2] > 100 µM | [3] > 100 µM | [4] > 100 µM | [5] > 100 µM | [6] > 100 µM | [7] > 100 µM | [8] > 100 µM | [9] > 100 µM | [10] > 100 µM | [11] > 100 µM | [12] > 100 µM | [15] > 100 µM | [16] > 100 µM | [17] > 100 µM | [18] > 100 µM | [19] > 100 µM | [20] > 100 µM | [21] > 100 µM | [22] > 100 µM | [23] > 100 µM | [25] > 100 µM | [26] > 100 µM | [27] > 100 µM | [28] > 100 µM | [29] > 100 µM | [31] > 100 µM | [32] > 100 µM | [33] > 100 µM | [35] > 100 µM | [36] > 100 µM | [37] > 100 µM | [38] > 100 µM | [39] > 100 µM | [40] > 100 µM | [41] > 100 µM | [43] > 100 µM | [44] > 100 µM | [45] > 100 µM | [46] > 100 µM | [48] > 100 µM | [49] > 100 µM | [50] > 100 µM | [51] > 100 µM | [52] > 100 µM | [53] > 100 µM | [54] > 100 µM | [55] > 100 µM | [56] > 100 µM | [57] > 100 µM | [59] > 100 µM | [60] > 100 µM | [63] > 100 µM | [64] > 100 µM | [65] > 100 µM | [66] > 100 µM | [68] > 100 µM
